# According to patent publication US20190014793A1, “METHOD OF PROVIDING NUTRITION TO INFANTS” (ABBOTT LABORATORIES, priority 2011, published 2019):
# Experiments:
# [1] = Merck Index, 11th Ed.; cited from earlier work
# [2] = Amino acid solubility considerations (estimated concentration v. solubility limit); type: physicochemical; details: % of solubility limit at 25° C.
SMILES,"Solubility limit of free amino acid, 25° C. [1] [mg/mL]","Sterile liquid protein concentration, % of limit [2] [%]"
"CC[C@H](C)[C@H](N)C(=O)O [Ile, Isoleucine]",41.2,22
"CC(C)C[C@H](N)C(=O)O [Leu, Leucine]",24.26,67
"N[C@@H](Cc1ccccc1)C(=O)O [Phe, L-phenylalanine]",29.6,27
"N[C@@H](Cc1ccc(O)cc1)C(=O)O [Tyr, L-tyrosine]",,400
"CC(C)[C@H](N)C(=O)O [Val, Valine]",88.5,13
